Source: paper PMC12596758 (Clinical pharmacology and therapeutics, 2025)
Where two headings read alike, the source gives them in different places. Values belong to the compound of their own block, whether it stands above or below them.

Experiments:
[1] = tested on: nicotinamide N-methyltransferase, NNMT; settings: cited from earlier work
aldehyde oxidase, AO = settings: cited from earlier work
OCT2 = settings: read-out: IC50 for OCT2; cited from earlier work
OCT1 [2] = settings: potent OCT1 inhibitor new chemical entity vs placebo, healthy adults; cited from earlier work
[3] = for relative plasma concentrations between study arms: targeted analysis, baseline vs cimetidine exposure
[4] = excreted unchanged into urine; cited from earlier work
clinical = settings: both, human, po; for Cmax: plasma
[5] = rats, cimetidine 100 mg/kg intraperitoneally; cited from earlier work
Oct1 [6] = settings: Oct1 knockout mice vs wild-type mice, single oral dose of metformin; cited from earlier work
[7] = cited from earlier work
[8] = pyrimethamine 75 mg, healthy adults; cited from earlier work
[9] = cimetidine 400 mg vs baseline, healthy adults
[10] = decrease with cimetidine 400 mg vs baseline, healthy adults
[11] = increase with cimetidine 400 mg vs baseline, healthy adults
[12] = cimetidine 400 mg vs baseline, healthy adults, listed as NMA

relative plasma concentrations between study arms [3]: no significant differences
SMILES: C[n+]1cccc(C(=O)O)c1 [N1-methyl nicotinic acid]

relative plasma concentrations between study arms [3]: no significant differences
SMILES: CC(=O)OCC[N+](C)(C)C [acetylcholine]

relative plasma concentrations between study arms [3]: no significant differences
SMILES: C[N+](C)(C)CCO [choline]

relative plasma concentrations between study arms [3]: no significant differences
SMILES: N[C@@H](Cc1c[nH]c2ccccc12)C(=O)O [tryptophan]

Second part, the compound before the results:

SMILES: CN/C(=N/CCSCc1nc[nH]c1C)NC#N [Cimetidine, cimetidine]
inhibition of NNMT activity [1]: does not inhibit
inhibition of AO activity (aldehyde oxidase, AO): does not inhibit
IC50 (OCT2): 23.6 to 207 µM

SMILES: CC(C)C(=O)O[C@H](CC(=O)[O-])C[N+](C)(C)C [Isobutyryl-L-carnitine, isobutyryl-L-carnitine]
decrease in plasma exposure (OCT1 [2]): 35%
AUC(0–4 h), effect of cimetidine exposure vs baseline (in words) [3, 9]: did not differ
AUC(0–24 h), effect of cimetidine exposure vs baseline (in words) [3, 9]: did not differ
Cmax, effect of cimetidine exposure vs baseline (in words) [3, 9]: did not differ
AUC(0–24 h) %Change (cimetidine exposure/baseline), decrease (↓) [3, 10]: 4% (↓)
Cmax %Change (cimetidine exposure/baseline), decrease (↓) [3, 10]: 6% (↓)

SMILES: CN(C)C(=N)N=C(N)N [Metformin]
share of urinary excretion through glomerular filtration [4]: 25%
share of urinary excretion through renal secretion [4]: 75%
Cmax (clinical): 168 ng/mL
Cmax (clinical; 50 mg): 124 ng/mL
increase in metformin blood concentrations [5]: 3.2 fold
reduction in CLr [5]: 73%
reduction of hepatic metformin concentration (Oct1 [6]): 3.4 fold
higher AUC(0–24 h), group TT compared to heterozygous group TC ([3]; MATE1 c.−66T>C (rs2252281), baseline arm, p = 0.042): 1.42 fold
CLr,b %Change (cimetidine exposure/baseline), decrease (↓) [3, 10]: 17% (↓)
CLr,a %Change (cimetidine exposure/baseline), decrease (↓) ([3]; decrease with cimetidine 400 mg vs baseline, healthy adults, CLr based on 0–24 h): 8% (↓)
Renal OCT2 alone (AUC(0–24 h)) % Change Observed data, increase (↑) ([3]; from the observed CLr decrease): 8% (↑)
AUC(0–24 h) %Change (cimetidine exposure/baseline), increase (↑) [3, 11]: 24% (↑)
Ae(0–4 h) %Change (cimetidine exposure/baseline), increase (↑) [3, 11]: 4% (↑)
AUC(0–24 h) %Change (cimetidine exposure/baseline), increase (↑) ([3]; increase with cimetidine 400 mg vs baseline, healthy adults, listed as metformin): 24%
increase in Cmax with cimetidine treatment ([3]; individuals homozygous for OCT1 c.480G>C (p.Leu160Phe, rs683369), p = 0.006): 48%
increase in AUC(0–24 h) with cimetidine treatment ([3]; individuals homozygous for OCT1 c.480G>C (p.Leu160Phe, rs683369), p = 0.025): 33%
increase in AUC(0–24 h) with cimetidine ([3]; participants homozygous for OCT2 c.1506C>T (p.Val502=, rs316003), p = 0.022): 27%
reduction in CLr,a with cimetidine ([3]; participants homozygous for OCT2 c.518+32G>C (rs2774230) or c.1506C>T (rs316003)): 9%
increase in AUC(0–24 h) with cimetidine ([3]; participants homozygous for OCT2 c.518+32G>C (rs2774230), p = 0.013): 35%
decrease in CLr ([7]; oral metformin 250–500 mg with cimetidine, healthy adults): 27–45%
reduction in metformin CLr ([7]; similar cimetidine dosing regimen (400 mg), not statistically significant, ref 26 (Koishikawa et al.)): 15%

SMILES: Cn1cnc2c(ncn2[C@@H]2O[C@H](CO)[C@@H](O)[C@H]2O)c1=N [N1-Methyladenosine, N1-methyladenosine]
CL renal (clinical; plasma and urine): 68.3 mL/min
Cmax (clinical): 2.6 ng/mL
Cmax (clinical; 50 mg): 2.6 ng/mL
reduction in CLr [8]: 47%
AUC(0–4 h), effect of cimetidine exposure vs baseline (in words) [3, 9]: comparable
AUC(0–24 h), effect of cimetidine exposure vs baseline (in words) [3, 9]: comparable
Ae(0–4 h), effect of cimetidine exposure vs baseline (in words) [3, 9]: comparable
Ae(0–24 h), effect of cimetidine exposure vs baseline (in words) [3, 9]: comparable
CLr,a, effect of cimetidine exposure vs baseline (in words) [3, 9]: No change
CLr,b, effect of cimetidine exposure vs baseline (in words) [3, 9]: comparable
Cmax, effect of cimetidine exposure vs baseline (in words) [3, 9]: No change
CLr,a, effect of cimetidine exposure vs baseline (in words) [3, 12]: comparable
Cmax, effect of cimetidine exposure vs baseline (in words) [3, 12]: comparable
AUC(0–4 h) %Change (cimetidine exposure/baseline), decrease (↓) [3, 10]: 5% (↓)
AUC(0–24 h) %Change (cimetidine exposure/baseline), decrease (↓) [3, 10]: 5% (↓)
Ae(0–24 h) %Change (cimetidine exposure/baseline), decrease (↓) [3, 10]: 4% (↓)
Ae(0–4 h) %Change (cimetidine exposure/baseline), increase (↑) [3, 11]: 44% (↑)
CLr,b %Change (cimetidine exposure/baseline), increase (↑) [3, 11]: 53% (↑)

SMILES: C[N+](C)(C)CC(O)CC(=O)[O-] (stereo not drawn) [carnitine]
relative plasma concentrations between study arms [3]: no significant differences

SMILES: C[N+](C)(C)CC(=O)[O-] [glycine betaine]
relative plasma concentrations between study arms [3]: no significant differences
